Experiments:
[1] = test system: Naïve CD4 T-cells; test: In vitro T-cell differentiation in DC conditioned medium, IL-17/IL-10 in supernatants by ELISA; type: cell-based, C57BL/6J mice; details: three days in CM, with IFN-γ neutralizing antibody
Method: Bone marrow (BM)-derived GM-CSF DC cultures were grown in RPMI supplemented with GM-CSF and 5% foetal bovine serum (FBS), plus 100 μg/mL penicillin, 100 μg/mL streptomycin, 2 mM L-glutamine, 10 mM HEPES, 1 nM sodium pyruvate, 1×MEM nonessential amino acids, and 2.5 μM β-mercaptoethanol (all from Sigma-Aldrich, St. Louis, Mo.), as previously dcseribed^1. Semi-adherent cells were harvested on ice on day 5 and re-plated immediately in fresh GM-CSF medium at 1×10^6 cells/well in 24-well tissue culture-treated plates. Soluble or phagocytic stimuli were added right away to the plates in the same medium and the cells were centrifuged for 2 min at 2000 rpm. Supernatants (conditioned medium, CM) were collected after 18 hours. LPS (from E. coli, serotype 055:B5, L-2880) was purchased from Sigma-Aldrich. BMDC were treated with various doses of soluble LPS or 2:1 A20 LPS blasts:DC to titrate the LPS such that levels of IL-6 produced by DC in response to these stimuli was similar. Soluble LPS was used at a final concentration of 1 ng/mL. The A20 B-cell line was obtained from the ATCC (TIB-208). A20 LPS blasts were prepared by culturing A20 cells at 1×10^6 cells/mL, 3 mL/well in 6-well tissue culture plates for four days in RPMI medium supplemented with 10% FBS, with 100 μg/mL penicillin, 100 μg/mL streptomycin, 2 mM L-glutamine, 10 mM HEPES, 1 nM sodium pyruvate, plus 25 μg/mL LPS, as previously described in Blander, J. M. and Medzhitov, R. (2004) Science 304(5673):1014. […] Cells were centrifuged, counted, and apoptosis was induced by UV irradiation at 350 mJ. […]
Naïve CD4 T cells were isolated first by sorting with MACS® CD4^+ beads (Miltenyi Biotech, Auburn, Calif.) according to manufacturer's instructions and then by fluorescence activated cell sorting (FACS) using a MoFlo™, Vantage, or Influx™ cell sorter for CD25^−CD44^lowCD62L^high cells using allophycocyanin (APC)-conjugated anti-CD25 monoclonal antibody (mAb) (clone PC61.5), FITC-conjugated CD62L mAb (clone MEL-14), and PE-Cy5-conjugated CD44 mAb (clone IM7) (all from eBioscience™, San Diego, Calif.). […]

[2] = test system: Bone marrow DC; test: TGF-β bioassay of DC conditioned medium (MFB-F11 SBE-SEAP reporter cells); type: cell-based, mice
Method: Analysis of bioactive TGF-β was performed as previously described in Tesseur, I. et al. (2006) BMC Cell Biol 7: 15. MFB-F11 mouse fibroblast cells stably transfected with a reporter plasmid consisting of TGF-β-responsive Smad-binding elements coupled to a secreted alkaline phosphatase reporter gene (SBE-SEAP) were seeded at 3×10^4 cells/well in 96-well flat bottom tissue culture plates and cultured overnight in DMEM supplemented with 10% FBS and penicillin/streptomycin (DMEM/P/S). Cells were washed twice with PBS and incubated in 50 μL serum-free DMEM for 2 hours. Conditioned medium from DC was diluted 1:5 in serum-free DMEM/P/S and 5 μL was added to the MFB-F11 cells. For detection of total TGF-β, diluted conditioned medium was activated by adding 1.5 μL 6M HCl to 150 μL of sample and incubating 10 minutes at room temperature. Neutralization was performed by adding 1.5 μL 6M NaOH. […] SEAP activity was measured using Great EscAPe™ SEAP Reporter System 3 (Clontech, Mountain View, Calif.) according to the manufacturer's protocol with 96-well white/flat bottom plates. Luciferase activity was measured with a FLUOStar Optima reader (BMG Labtech, Durham, N.C.). For each sample, the concentration of biologically active TGF-β was calculated as follows: (luciferase activity of bio-active TGF-β/luciferase activity for total TGF-β)×100. […]

[3] = test system: IL-17+ CD4 T-cells in lamina propria; test: DSS-induced damage of the intestinal epithelium, IL-17+ CD4 T-cells in lamina propria lymphocytes; type: in vivo, C57BL/6 mice; details: DSS in water for seven days, sacrificed on day 9, small intestines and colons
Method: The small intestines and colons of C57BL/6J or C3H/HeOuJ mice were harvested at the indicated times. […] To prepare IEL/LPL, small intestines and colons were flushed with HBSS medium without calcium or magnesium (Gibco). Intestines were cut longitudinally and washed twice briefly in HBSS, 2% FBS in 6-well plates and then placed in 15 mL ice-cold HBSS, 2% FBS in 50-mL conical tubes and vortexed at maximum setting for 15-20 seconds. Tissue was removed using long forceps into a new tube with 15 mL ice-cold HBSS, 2% FBS and vortexed again twice, for a total of three washes. The tissues were then placed in 50-mL conical tubes containing 25 mL, HBSS, 5% FBS, and 1 mM DTT (Sigma-Aldrich). Tubes were incubated on a rocker at 37° C. for 20 minutes followed by vortexing extensively at maximum setting. For IEL, fractions were collected after two rounds of 20 minutes in HBSS/FBS/DTT. Tissues were then placed in fresh tubes containing 25 mL of PBS with 1.3 mM EDTA, incubated on a rocker for 60 minutes at 37° C. and vortexed. […]
WT and mutant C. rodentium were prepared by incubation with shaking at 37° C. for 8 hours in LB broth medium. After 8 hours, the bacterial density was assessed at an optical density of 600 nm and confirmed by plating of serial dilutions. […]

lipopolysaccharide [free LPS]
IL-17 secreting CD4 T-cells [1]: some induction of IL-17 secreting (IL-17^+) CD4 T-cells | production of biologically active TGF-β by DC [2]: did not

dextran sulfate sodium [dextran sulfate sodium (DSS)]
IL-17+ CD4 T-cells [3]: did not increase IL-17^+ CD4 T-cells over uninfected controls

Source: patent US8628762B2, “T-helper cell type 17 lineage-specific adjuvants, compositions and methods” (Icahn School of Medicine at Mount Sinai, priority 2008, dated 2014)
